pIC50: −log10 of the molar value.
Test system: K12877-001-R-J1-PDC complex spheroid viability
Test: Anticancer human tumor K12877-001-R-J1-PDC patient-derived lung adenocarcinoma cell line growth inhibition [RAS]
Settings: for viability, T/C: stronger effect = lower value
Summary of the method: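 Tumour cells grown as complex spheroids with HUVEC endothelial cells and mesenchymal stem cells, treated with RAS pathway inhibitor combinations. Each agent spans half-log steps from near clinical Cmax, or 10 microM where Cmax is unknown.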
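Also: spheroids exposed to agents for one week before readout.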

Cc1nc(N2CCC3(CC2)COC(C)C3N)c(CO)nc1Sc1ccnc(N)c1Cl (configuration not stated)
viability, T/C (compound 0.1 µM): 92.8% [middle of 4 runs] | viability, T/C (compound 0.316 µM): 92.2% [middle of 4 runs] | viability, T/C (compound 1 µM): 93.8% [middle of 4 runs] | viability, T/C (compound 10 µM): 79.5% [middle of 4 runs] | pIC50 (curve of compound): < 5.00

CC(=O)OC12COC1CC(O)C1(C)C(=O)C(O)C3=C(C)C(OC(=O)C(O)C(NC(=O)OC(C)(C)C)c4ccccc4)CC(O)(C(OC(=O)c4ccccc4)C21)C3(C)C (configuration not stated) + C=CC(=O)N1CCN(c2nc(OCC3CCCN3C)nc3c(F)c(-c4nc(N)cc(C)c4C(F)(F)F)c(Cl)cc23)C(C)C1
pIC50 (curve of first compound, second compound 0.00316 µM): > 7.50 | pIC50 (curve of first compound, second compound 0.01 µM): > 7.50 | pIC50 (curve of first compound, second compound 0.0316 µM): > 7.50 | pIC50 (curve of first compound, second compound 0.1 µM): > 7.50 | pIC50 (curve of first compound, second compound 0.316 µM): > 7.50 | pIC50 (curve of first compound, second compound 1 µM): > 7.50 | viability, T/C (second compound 0.00316 µM, first compound 0.0316 µM): 5.23% | viability, T/C (second compound 0.00316 µM, first compound 0.1 µM): 4.77% | viability, T/C (second compound 0.00316 µM, first compound 0.316 µM): 3.44% | viability, T/C (second compound 0.00316 µM, first compound 1 µM): 4.18% | viability, T/C (second compound 0.00316 µM, first compound 3.16 µM): 4.77% | viability, T/C (second compound 0.00316 µM, first compound 10 µM): 16.1% | viability, T/C (second compound 0.01 µM, first compound 0.0316 µM): 5.39% | viability, T/C (second compound 0.01 µM, first compound 0.1 µM): 5.01% | viability, T/C (second compound 0.01 µM, first compound 0.316 µM): 3.61% | viability, T/C (second compound 0.01 µM, first compound 1 µM): 2.92% | viability, T/C (second compound 0.01 µM, first compound 3.16 µM): 3.84% | viability, T/C (second compound 0.01 µM, first compound 10 µM): 13.6% | viability, T/C (second compound 0.0316 µM, first compound 0.0316 µM): 6.48% | viability, T/C (second compound 0.0316 µM, first compound 0.1 µM): 4.68% | viability, T/C (second compound 0.0316 µM, first compound 0.316 µM): 3.7% | viability, T/C (second compound 0.0316 µM, first compound 1 µM): 2.91% | viability, T/C (second compound 0.0316 µM, first compound 3.16 µM): 3.42% | viability, T/C (second compound 0.0316 µM, first compound 10 µM): 10.1% | viability, T/C (second compound 0.1 µM, first compound 0.0316 µM): 6.61% | viability, T/C (second compound 0.1 µM, first compound 0.1 µM): 4.59% | viability, T/C (second compound 0.1 µM, first compound 0.316 µM): 2.95% | viability, T/C (second compound 0.1 µM, first compound 1 µM): 3.77% | viability, T/C (second compound 0.1 µM, first compound 3.16 µM): 5.42% | viability, T/C (second compound 0.1 µM, first compound 10 µM): 11.1% | viability, T/C (second compound 0.316 µM, first compound 0.0316 µM): 5.94% | viability, T/C (second compound 0.316 µM, first compound 0.1 µM): 3.96% | viability, T/C (second compound 0.316 µM, first compound 0.316 µM): 3.29% | viability, T/C (second compound 0.316 µM, first compound 1 µM): 3.54% | viability, T/C (second compound 0.316 µM, first compound 3.16 µM): 4.12% | viability, T/C (second compound 0.316 µM, first compound 10 µM): 10.3% | viability, T/C (second compound 1 µM, first compound 0.0316 µM): 4.92% | viability, T/C (second compound 1 µM, first compound 0.1 µM): 3.77% | viability, T/C (second compound 1 µM, first compound 0.316 µM): 4.87% | viability, T/C (second compound 1 µM, first compound 1 µM): 4.09% | viability, T/C (second compound 1 µM, first compound 3.16 µM): 4.48% | viability, T/C (second compound 1 µM, first compound 10 µM): 11%
